Assay results as given in ChEMBL document CHEMBL4433262, “Synthesis and biological evaluation of novel benzo[c][1,2,5]thiadiazol-5-yl and thieno[3,2-c]- pyridin-2-yl imidazole derivatives as ALK5 inhibitors” (Bioorg Med Chem Lett, 2019).
Active and inactive are the calls of the source. The rule behind the calls is not given here.

What was measured:
[1] = target: T1, TGF-beta receptor type-1 (Homo sapiens, UniProt P36897); experiment: Inhibition of human recombinant GST-tagged ALK5 expressed in Sf9 insect cells using casein as substrate incubated for 60 mins in presence of [33P]-ATP by scintillation counting method
T1 sequence (P36897 whole entry): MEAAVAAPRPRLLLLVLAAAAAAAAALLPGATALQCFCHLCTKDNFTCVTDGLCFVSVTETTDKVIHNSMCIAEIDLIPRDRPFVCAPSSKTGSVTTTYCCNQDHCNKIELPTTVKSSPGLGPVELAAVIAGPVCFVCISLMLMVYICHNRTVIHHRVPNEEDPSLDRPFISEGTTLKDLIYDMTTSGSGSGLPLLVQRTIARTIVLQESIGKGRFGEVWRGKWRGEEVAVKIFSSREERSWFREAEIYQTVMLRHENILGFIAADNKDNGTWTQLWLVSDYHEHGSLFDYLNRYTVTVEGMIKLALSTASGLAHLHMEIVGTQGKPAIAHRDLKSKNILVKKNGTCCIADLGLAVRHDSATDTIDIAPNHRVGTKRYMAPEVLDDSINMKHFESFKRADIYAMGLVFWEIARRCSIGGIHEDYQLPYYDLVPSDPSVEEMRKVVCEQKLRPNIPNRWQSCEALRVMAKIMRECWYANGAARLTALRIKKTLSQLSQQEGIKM

[2] = target: T2, Mitogen-activated protein kinase 14 (Homo sapiens, UniProt Q16539); experiment: Inhibition of human recombinant untagged p38alpha expressed in Escherichia coli using ATF2 as substrate incubated for 60 mins in presence of [33P]-ATP by scintillation counting method
[3] = target: T2, Mitogen-activated protein kinase 14; experiment: Potency index, ratio of IC50 for LY-2157299 to IC50 for test compound for inhibition of human recombinant untagged p38alpha expressed in Escherichia coli using ATF2 as substrate incubated for 60 mins in presence of [33P]-ATP by scintillation counting method
[4] = target: T3, TGF-beta receptor type-1 (Homo sapiens) (UniProt P36897); experiment: Inhibition of ALK5 in human HUVEC cells assessed as reduction in TGFbeta1-induced cell motility at 10 uM incubated for 0 to 48 hrs by wound healing assay; assay type: cell-based
T3 sequence (whole entry): T1 sequence (P36897 whole entry)

[5] = target: T3, TGF-beta receptor type-1 (Homo sapiens); experiment: Potency index, ratio of IC50 for LY-2157299 to IC50 for test compound for inhibition of human recombinant GST-tagged ALK5 expressed in Sf9 insect cells using casein as substrate incubated for 60 mins in presence of [33P]-ATP by scintillation counting method
[6] = target: T2, Mitogen-activated protein kinase 14; experiment: Potency index, ratio of IC50 for EW-7197 to IC50 for test compound for inhibition of human recombinant untagged p38alpha expressed in Escherichia coli using ATF2 as substrate incubated for 60 mins in presence of [33P]-ATP by scintillation counting
[7] = target: T3, TGF-beta receptor type-1 (Homo sapiens); experiment: Inhibition of ALK5 in human HepG2 cells assessed as reduction in TGFbeta1-induced Smad2 phosphorylation incubated for 36 hrs by Western blot analysis; assay type: cell-based
[8] = target: T3, TGF-beta receptor type-1 (Homo sapiens); experiment: Inhibition of ALK5 in human SPC-A1 cells assessed as reduction in TGFbeta1-induced Smad2 phosphorylation at 0.1 to 0.5 uM incubated for 36 hrs by Western blot analysis; assay type: cell-based
[9] = target: T3, TGF-beta receptor type-1 (Homo sapiens); experiment: Potency index, ratio of IC50 for EW-7197 to IC50 for test compound for inhibition of human recombinant GST-tagged ALK5 expressed in Sf9 insect cells using casein as substrate incubated for 60 mins in presence of [33P]-ATP by scintillation counting method

T2 sequence (Q16539 whole entry): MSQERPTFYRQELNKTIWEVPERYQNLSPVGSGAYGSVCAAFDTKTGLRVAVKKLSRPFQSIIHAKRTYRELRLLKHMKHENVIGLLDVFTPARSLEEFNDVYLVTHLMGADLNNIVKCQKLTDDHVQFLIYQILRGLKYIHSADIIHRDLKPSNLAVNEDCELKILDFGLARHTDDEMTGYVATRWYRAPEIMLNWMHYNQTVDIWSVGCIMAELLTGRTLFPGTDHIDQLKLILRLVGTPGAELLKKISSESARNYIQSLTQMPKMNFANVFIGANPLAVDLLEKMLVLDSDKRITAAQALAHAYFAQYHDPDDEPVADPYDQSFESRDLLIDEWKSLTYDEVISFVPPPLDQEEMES

Structure (SMILES) | IC50 [1] [nM] | IC50 [2] [nM] | also measured
Cc1cccc(NCc2nc(-c3cc4cnccc4s3)c(-c3cccc(C)n3)[nH]2)c1 | 19 | 2220 | –
Cc1cccc(-c2[nH]c(CNc3ccccc3)nc2-c2ccc3nsnc3c2)n1 | 14 | 763 | –
Cc1cccc(-c2[nH]c(CNc3ccccc3F)nc2-c2cc3cnccc3s2)n1 | 23 | 6060 | –
Cc1cccc(-c2[nH]c(CNc3ccccc3C)nc2-c2ccc3nsnc3c2)n1 | 21 | 899 | –
Cc1ccc(NCc2nc(-c3cc4cnccc4s3)c(-c3cccc(C)n3)[nH]2)cc1 | 43 | > 10000 | –
Cc1ccc(NCc2nc(-c3ccc4nsnc4c3)c(-c3cccc(C)n3)[nH]2)cc1 | 22 | 7700 | –
Cc1cccc(-c2[nH]c(CNc3ccccc3)nc2-c2cc3cnccc3s2)n1 | 25 | 4400 | –
Cc1cccc(-c2[nH]c(CNc3cccc(F)c3)nc2-c2cc3cnccc3s2)n1 | 17 | 1520 | –
Cc1cccc(-c2[nH]c(CNc3ccc(F)cc3)nc2-c2cc3cnccc3s2)n1 | 42 | 4840 | –

Second part, led by results:

IC50 [1] [nM] | IC50 [2] [nM] | Structure (SMILES) | also measured
8 | 148 | Cc1cccc(-c2[nH]c(CNc3cccc(F)c3)nc2-c2ccc3nsnc3c2)n1 | Ratio IC50 [3]: 3.3; inhibition [4]: Active; Ratio IC50 [5]: 16.1; Ratio IC50 [6]: 19.9; inhibition [7]: Dose-dependent effect; inhibition [8]: Active; Ratio IC50 [9]: 1.8
14 | 2440 | Cc1cccc(-c2[nH]c(CNc3ccccc3C)nc2-c2cc3cnccc3s2)n1 | –
11 | 1170 | Cc1cccc(-c2[nH]c(CNc3ccccc3F)nc2-c2ccc3nsnc3c2)n1 | –
13 | 513 | Cc1cccc(NCc2nc(-c3ccc4nsnc4c3)c(-c3cccc(C)n3)[nH]2)c1 | –
10 | 831 | Cc1cccc(-c2[nH]c(CNc3ccc(F)cc3)nc2-c2ccc3nsnc3c2)n1 | –
